Here are results for four compounds from article PMC4812296, “A chemical family-based strategy for uncovering hidden bioactive molecules and multicomponent interactions in herbal medicines” (Scientific Reports, 2016).

In this experiment the target is T1, thrombin (Bos taurus, UniProt P00735).
T1 construct: gene F2
The experiment in a line: chromogenic S-2238 hydrolysis assay, bovine plasma thrombin. The experiment is classed as biochemical.
`Cc1cccc2c3c(ccc12)C1=C(C(=O)C3=O)[C@@H](C)CO1` (single isomer, unassigned) [peak 15, Dihydrotanshinone I] registered an IC50 of 92 ± 5 µM.

Turning to `C[C@H]1COC2=C1C(=O)C(=O)c1c2ccc2c1CCCC2(C)C` (single isomer, unassigned) [peak 16, Cryptotanshinone], the IC50 was found to be 102 ± 4 µM.

The compound `Cc1coc2c1C(=O)C(=O)c1c-2ccc2c(C)cccc12` [peak 17, Tanshinone I] yielded an IC50 of 333 ± 28 µM. Compared with the last compound, the IC50 is about 3.3-fold higher.

Take `Cc1coc2c1C(=O)C(=O)c1c-2ccc2c1CCCC2(C)C` [peak 18, Tanshinone IIA]: the IC50 was 39 ± 1 µM.
